Experimental data from ChEMBL document CHEMBL5625183, “Discovery of a novel dual-target inhibitor of CDK12 and PARP1 that induces synthetic lethality for treatment of triple-negative breast cancer” (Eur J Med Chem, 2023).
Calls of active or inactive are those of the source. The rule behind the calls is not given here.

What was measured:
[1] = system: MDA-MB-231; assay: Inhibition of cell migration in human MDA-MB-231 cells at 10 uM incubated for 24 hrs by transwell assay; format: functional, cell-based
[2] = target: Cyclin-dependent kinase 5 (Homo sapiens, UniProt Q00535); assay: Inhibition of CDK5 (unknown origin) at 1 uM relative to control
[3] = system: MDA-MB-436; assay: Antiproliferative activity against human MDA-MB-436 cells transfected with wild type CDK12 and PARP1 G863A mutant incubated for 24 hrs by MTT assay; format: functional, cell-based
[4] = target: T1, Dual specificity tyrosine-phosphorylation-regulated kinase 2 (Homo sapiens) (UniProt Q92630); assay: Inhibition of DYRK2 (unknown origin) at 1 uM relative to control
T1 sequence (whole entry): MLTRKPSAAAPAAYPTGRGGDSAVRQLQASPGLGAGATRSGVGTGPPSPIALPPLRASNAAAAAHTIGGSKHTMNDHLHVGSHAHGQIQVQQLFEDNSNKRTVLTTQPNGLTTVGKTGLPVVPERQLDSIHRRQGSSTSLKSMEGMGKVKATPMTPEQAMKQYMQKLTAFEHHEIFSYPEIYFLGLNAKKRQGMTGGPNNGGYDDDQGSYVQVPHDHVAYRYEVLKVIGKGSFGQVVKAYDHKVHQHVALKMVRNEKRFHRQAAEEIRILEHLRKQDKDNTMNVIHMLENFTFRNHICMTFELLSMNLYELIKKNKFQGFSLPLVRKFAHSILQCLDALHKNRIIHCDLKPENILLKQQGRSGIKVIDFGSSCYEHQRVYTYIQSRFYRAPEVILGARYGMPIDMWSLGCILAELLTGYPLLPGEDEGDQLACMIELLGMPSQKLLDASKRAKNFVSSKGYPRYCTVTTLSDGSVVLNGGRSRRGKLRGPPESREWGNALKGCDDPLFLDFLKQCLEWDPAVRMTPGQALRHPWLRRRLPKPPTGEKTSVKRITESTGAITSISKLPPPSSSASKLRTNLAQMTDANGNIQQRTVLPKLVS

[5] = system: MDA-MB-231; assay: Induction of cell cycle arrest in human MDA-MB-231 cells assessed as accumulation of cells at G2 phase at 5 uM measured after 24 hrs by PI staining based cytometry analysis (reference value: 8.44 %); format: functional
[6] = target: AP2-associated protein kinase 1 (Homo sapiens) (UniProt Q2M2I8); assay: Inhibition of AAK1 (unknown origin) at 1 uM relative to control
[7] = system: MDA-MB-231; assay: Antitumor activity against human MDA-MB-231 cells xenografted in BALB/c mouse assessed as reduction in Ki67 expression at 20 to 80 mg/kg, ip administered once daily for 16 days by meyers hematoxylin staining based IHC analysis; format: functional, organism-based; details: dose 20-80 mg/kg, time 16.0 day
[8] = Toxicity in BALB/c mouse xenografted with human MDA-MB-231 cells assessed as morphological changes in liver at 20 to 80 mg/kg, ip administered once daily for 16 days by H and E staining based analysis; format: organism-based; details: in vivo, 384 h, dose 20-80 mg/kg, time 16 day
[9] = system: MDA-MB-231; assay: Induction of apoptosis in human MDA-MB-231 cells incubated for 24 hrs by Annexin V/PI staining based flow cytometry analysis; format: functional, cell-based; details: dose 5-20 µM
[10] = system: MDA-MB-231; assay: Induction of apoptosis in human MDA-MB-231 cells assessed as downregulation of Bcl-2 expression incubated for 24 hrs; format: functional, cell-based; details: dose 5-20 µM
[11] = system: MDA-MB-231; assay: Induction of cell cycle arrest in human MDA-MB-231 cells assessed as accumulation of cells at G2 phase at 20 uM measured after 24 hrs by PI staining based cytometry analysis (reference value: 8.44 %); format: functional
[12] = system: MCF-10A; assay: Cytotoxicity against human MCF-10A cells assessed reduction in cell viability incubated for 24 hrs by MTT assay; format: toxicity, cell-based
[13] = system: MDA-MB-436; assay: Upregulation of gamma-H2AX expression in human MDA-MB-436 cells incubated for 24 hrs by Western blot analysis; format: functional, cell-based; details: dose <= 20.0 µM
[14] = system: MDA-MB-468; assay: Inhibition of cell migration in human MDA-MB-468 cells assessed as upregulation of E-cadherin level by measuring fluorescence intensity at 10 uM incubated for 24 hrs by confocal microscopic analysis; format: functional, cell-based
[15] = system: MDA-MB-231; assay: Antiproliferative activity against human MDA-MB-231 cells assessed as reduction in EDU-positive cells at 10 uM […]-staining based analysis; format: functional, cell-based
[16] = system: MDA-MB-468; assay: Induction of apoptosis in human MDA-MB-468 cells assessed as increase in […] at 10 uM incubated for 24 hrs by Annexin V/PI staining based flow cytometry analysis; format: functional, cell-based
[17] = system: MDA-MB-231; assay: Inhibition of cell migration in human MDA-MB-231 cells assessed as upregulation of E-cadherin level by measuring fluorescence intensity at 10 uM incubated for 24 hrs by confocal microscopic analysis; format: functional, cell-based
[18] = Apparent volume of distribution in Sprague-Dawley rat at 1 mg/kg, iv measured upto 24 hrs by LC-MS/MS analysis; format: ADME, organism-based; details: in vivo, read-out: Vz
[19] = system: MDA-MB-231; assay: Induction of cell cycle arrest in human MDA-MB-231 cells assessed as accumulation of cells at G1 phase at 10 uM measured after 24 hrs by PI staining based cytometry analysis (reference value: 68.55%); format: functional
[20] = system: MDA-MB-468; assay: Inhibition of cell migration in human MDA-MB-468 cells at 10 uM incubated for 24 hrs by transwell assay; format: functional, cell-based
[21] = system: MDA-MB-468; assay: Induction of […] in human MDA-MB-468 cells assessed as increase in gamma-H2AX foci formation at 10 uM incubated for 24 hrs by confocal laser scanning microscopic analysis; format: functional, cell-based
[22] = target: Transcription initiation factor TFIID subunit 1-like (Homo sapiens) (UniProt Q8IZX4); assay: Inhibition of TAF1L (unknown origin) at 1 uM relative to control
[23] = target: T2, Cyclin-dependent kinase 12 (Homo sapiens, UniProt Q9NYV4); assay: Inhibition of CDK12 in human MDA-MB-231 cells assessed as effect on Pol II CTD at ser7 residue phosphorylation incubated for 24 hrs; format: cell-based; details: dose 5-20 µM
[24] = system: MDA-MB-436; assay: Antiproliferative activity against human MDA-MB-436 cells transfected with wild type PARP1 and CDK12 M816A mutant incubated for 24 hrs by MTT assay; format: functional, cell-based
[25] = system: MDA-MB-436; assay: Induction of cell cycle arrest in human MDA-MB-436 cells assessed as accumulation of cells at G2 phase at 5 uM measured after 24 hrs by PI staining based cytometry analysis (reference value: 2.54%); format: functional
[26] = target: T2, Cyclin-dependent kinase 12; assay: Binding affinity to CDK12 in human MDA-MB-231 cells assessed as increase in protein thermal stabilization at 10 uM incubated for 6 hrs by CETSA based Western blot analysis; format: cell-based
[27] = target: T2, Cyclin-dependent kinase 12; assay: Inhibition of CDK12 (unknown origin) at 20 uM in presence of ATP by kinase-glo plus luminescent assay relative to control
[28] = system: MDA-MB-436; assay: Antiproliferative activity against human MDA-MB-436 cells assessed as inhibition of cell growth incubated for 24 hrs by MTT assay; format: functional, cell-based; details: Homo sapiens, MDA-MB-436, 24 h
[29] = MRT (0 to infinity) in Sprague-Dawley rat at 1 mg/kg, iv measured upto 24 hrs by LC-MS/MS analysis; format: ADME, organism-based; details: in vivo
[30] = Cmax in Sprague-Dawley rat at 10 mg/kg, po measured upto 24 hrs by LC-MS/MS analysis; format: ADME, organism-based; details: in vivo

T2 sequence (Q9NYV4 whole entry, looked up): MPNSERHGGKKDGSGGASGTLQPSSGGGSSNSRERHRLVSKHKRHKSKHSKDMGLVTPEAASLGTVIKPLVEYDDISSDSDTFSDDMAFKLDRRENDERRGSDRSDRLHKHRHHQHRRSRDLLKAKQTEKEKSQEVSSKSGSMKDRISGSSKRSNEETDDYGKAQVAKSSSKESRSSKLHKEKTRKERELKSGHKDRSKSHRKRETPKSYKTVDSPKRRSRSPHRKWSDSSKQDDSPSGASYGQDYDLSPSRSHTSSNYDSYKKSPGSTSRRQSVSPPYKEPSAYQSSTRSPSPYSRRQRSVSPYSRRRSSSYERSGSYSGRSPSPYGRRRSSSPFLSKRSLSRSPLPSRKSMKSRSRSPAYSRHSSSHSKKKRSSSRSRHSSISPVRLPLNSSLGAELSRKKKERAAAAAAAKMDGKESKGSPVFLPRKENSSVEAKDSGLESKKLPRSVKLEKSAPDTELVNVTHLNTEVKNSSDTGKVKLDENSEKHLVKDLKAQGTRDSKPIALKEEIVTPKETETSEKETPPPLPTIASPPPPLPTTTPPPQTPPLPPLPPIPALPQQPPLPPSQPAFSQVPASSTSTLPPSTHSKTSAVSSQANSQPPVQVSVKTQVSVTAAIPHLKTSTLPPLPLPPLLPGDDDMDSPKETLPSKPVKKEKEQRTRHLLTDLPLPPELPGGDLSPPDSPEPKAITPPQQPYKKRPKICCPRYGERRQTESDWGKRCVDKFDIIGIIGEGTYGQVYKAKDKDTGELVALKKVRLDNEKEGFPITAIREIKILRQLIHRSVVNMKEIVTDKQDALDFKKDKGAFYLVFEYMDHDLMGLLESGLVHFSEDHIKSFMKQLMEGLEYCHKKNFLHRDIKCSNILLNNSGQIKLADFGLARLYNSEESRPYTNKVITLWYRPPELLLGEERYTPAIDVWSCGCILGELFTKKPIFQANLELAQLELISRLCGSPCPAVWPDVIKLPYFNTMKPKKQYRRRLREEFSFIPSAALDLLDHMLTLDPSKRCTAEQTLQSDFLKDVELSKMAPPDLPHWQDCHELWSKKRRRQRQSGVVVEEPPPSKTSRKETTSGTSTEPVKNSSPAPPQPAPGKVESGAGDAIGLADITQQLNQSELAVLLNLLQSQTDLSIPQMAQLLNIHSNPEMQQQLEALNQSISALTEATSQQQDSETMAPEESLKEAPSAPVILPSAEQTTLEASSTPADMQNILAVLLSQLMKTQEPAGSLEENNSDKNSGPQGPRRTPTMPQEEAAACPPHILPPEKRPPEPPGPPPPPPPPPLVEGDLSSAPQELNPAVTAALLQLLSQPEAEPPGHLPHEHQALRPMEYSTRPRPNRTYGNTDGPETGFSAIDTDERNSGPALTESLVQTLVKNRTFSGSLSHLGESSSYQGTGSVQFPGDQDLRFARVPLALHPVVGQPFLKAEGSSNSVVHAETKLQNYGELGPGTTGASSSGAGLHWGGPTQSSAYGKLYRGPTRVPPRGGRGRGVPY
Sequence of AP2-associated protein kinase 1 (Homo sapiens) (Q2M2I8 whole entry, looked up): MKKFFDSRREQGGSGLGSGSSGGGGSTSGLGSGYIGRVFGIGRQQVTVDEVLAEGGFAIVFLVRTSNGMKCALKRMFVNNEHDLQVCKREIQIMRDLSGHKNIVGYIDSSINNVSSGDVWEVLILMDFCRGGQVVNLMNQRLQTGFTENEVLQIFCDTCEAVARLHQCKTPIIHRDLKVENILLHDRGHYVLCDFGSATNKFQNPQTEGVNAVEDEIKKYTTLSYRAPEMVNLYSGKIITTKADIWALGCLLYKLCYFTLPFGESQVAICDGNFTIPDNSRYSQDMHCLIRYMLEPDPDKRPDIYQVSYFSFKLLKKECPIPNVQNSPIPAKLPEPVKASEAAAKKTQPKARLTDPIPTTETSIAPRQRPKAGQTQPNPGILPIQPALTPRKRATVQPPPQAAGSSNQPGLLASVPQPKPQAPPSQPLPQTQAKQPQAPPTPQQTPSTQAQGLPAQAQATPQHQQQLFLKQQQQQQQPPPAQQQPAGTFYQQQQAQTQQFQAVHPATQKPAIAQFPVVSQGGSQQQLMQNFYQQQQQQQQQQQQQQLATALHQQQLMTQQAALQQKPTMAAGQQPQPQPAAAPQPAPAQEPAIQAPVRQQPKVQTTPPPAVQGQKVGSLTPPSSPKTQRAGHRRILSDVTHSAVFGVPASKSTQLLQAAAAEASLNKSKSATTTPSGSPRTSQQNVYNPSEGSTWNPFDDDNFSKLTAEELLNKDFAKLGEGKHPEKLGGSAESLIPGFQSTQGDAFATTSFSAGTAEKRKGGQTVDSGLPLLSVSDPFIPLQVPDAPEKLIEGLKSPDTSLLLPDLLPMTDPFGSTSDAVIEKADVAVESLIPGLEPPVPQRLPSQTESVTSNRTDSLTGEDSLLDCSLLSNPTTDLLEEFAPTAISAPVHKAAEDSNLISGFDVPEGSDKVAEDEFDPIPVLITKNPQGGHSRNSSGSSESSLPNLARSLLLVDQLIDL
Sequence of Cyclin-dependent kinase 5 (Q00535 whole entry, looked up): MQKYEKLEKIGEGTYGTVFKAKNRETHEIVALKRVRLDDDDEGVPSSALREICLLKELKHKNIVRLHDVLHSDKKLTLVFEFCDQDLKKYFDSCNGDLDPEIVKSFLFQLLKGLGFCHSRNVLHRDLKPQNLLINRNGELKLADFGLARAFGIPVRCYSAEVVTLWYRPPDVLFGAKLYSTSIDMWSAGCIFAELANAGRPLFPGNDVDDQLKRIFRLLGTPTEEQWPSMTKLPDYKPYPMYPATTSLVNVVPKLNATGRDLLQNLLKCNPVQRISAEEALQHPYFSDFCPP
Sequence of Transcription initiation factor TFIID subunit 1-like (Homo sapiens) (Q8IZX4 whole entry): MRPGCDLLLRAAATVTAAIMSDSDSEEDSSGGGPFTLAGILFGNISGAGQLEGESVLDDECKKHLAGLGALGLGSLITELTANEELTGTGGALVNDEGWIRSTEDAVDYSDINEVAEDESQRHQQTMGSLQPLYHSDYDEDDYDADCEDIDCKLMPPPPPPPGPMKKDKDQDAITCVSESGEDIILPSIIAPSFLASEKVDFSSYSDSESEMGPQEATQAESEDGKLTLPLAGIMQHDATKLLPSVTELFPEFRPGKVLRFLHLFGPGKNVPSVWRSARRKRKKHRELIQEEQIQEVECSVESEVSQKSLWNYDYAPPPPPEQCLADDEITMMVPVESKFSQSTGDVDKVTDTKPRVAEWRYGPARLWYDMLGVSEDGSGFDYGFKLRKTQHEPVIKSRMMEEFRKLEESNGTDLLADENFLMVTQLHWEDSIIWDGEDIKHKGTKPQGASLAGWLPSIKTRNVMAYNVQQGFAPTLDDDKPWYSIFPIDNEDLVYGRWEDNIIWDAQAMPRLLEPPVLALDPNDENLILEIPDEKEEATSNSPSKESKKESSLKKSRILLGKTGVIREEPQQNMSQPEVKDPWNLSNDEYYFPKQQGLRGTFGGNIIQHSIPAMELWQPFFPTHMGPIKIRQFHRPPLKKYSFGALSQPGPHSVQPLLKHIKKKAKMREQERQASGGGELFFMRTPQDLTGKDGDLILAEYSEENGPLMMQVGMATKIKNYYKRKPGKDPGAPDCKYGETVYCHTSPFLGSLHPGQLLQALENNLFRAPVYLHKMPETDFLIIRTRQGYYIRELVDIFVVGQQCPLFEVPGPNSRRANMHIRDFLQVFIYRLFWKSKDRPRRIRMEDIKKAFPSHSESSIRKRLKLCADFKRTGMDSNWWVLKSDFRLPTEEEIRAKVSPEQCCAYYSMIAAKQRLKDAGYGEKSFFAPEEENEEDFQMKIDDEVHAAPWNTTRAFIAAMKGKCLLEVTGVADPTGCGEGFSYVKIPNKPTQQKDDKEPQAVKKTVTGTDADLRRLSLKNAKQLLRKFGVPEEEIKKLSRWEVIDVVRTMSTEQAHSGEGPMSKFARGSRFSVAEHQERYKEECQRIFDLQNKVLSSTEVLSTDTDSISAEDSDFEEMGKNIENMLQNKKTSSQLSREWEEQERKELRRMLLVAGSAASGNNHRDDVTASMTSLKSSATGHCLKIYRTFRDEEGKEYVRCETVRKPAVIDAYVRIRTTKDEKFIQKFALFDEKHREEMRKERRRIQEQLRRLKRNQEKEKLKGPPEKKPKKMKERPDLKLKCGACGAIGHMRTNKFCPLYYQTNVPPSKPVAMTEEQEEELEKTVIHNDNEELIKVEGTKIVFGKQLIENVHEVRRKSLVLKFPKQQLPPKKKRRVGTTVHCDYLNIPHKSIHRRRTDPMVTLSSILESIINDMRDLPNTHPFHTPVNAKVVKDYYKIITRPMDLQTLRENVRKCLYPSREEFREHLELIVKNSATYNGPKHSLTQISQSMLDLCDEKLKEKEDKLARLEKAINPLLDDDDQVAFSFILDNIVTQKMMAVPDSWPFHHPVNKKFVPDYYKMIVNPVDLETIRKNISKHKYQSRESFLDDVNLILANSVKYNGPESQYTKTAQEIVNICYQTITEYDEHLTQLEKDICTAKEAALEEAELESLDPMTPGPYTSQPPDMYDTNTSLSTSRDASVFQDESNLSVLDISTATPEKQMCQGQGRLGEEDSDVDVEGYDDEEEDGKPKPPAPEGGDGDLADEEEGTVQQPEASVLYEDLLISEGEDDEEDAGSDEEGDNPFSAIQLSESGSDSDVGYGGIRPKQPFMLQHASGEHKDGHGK

NC(=O)c1cccc2[nH]c(NC(=O)c3cccc(C(=O)N4CCC(Nc5ncc(I)cn5)CC4)c3)nc12
inhibition [1]: Active | inhibition [2]: > 60% | Activity [3]: Active | inhibition [4]: > 60% | Activity [5]: 16.84% | inhibition [6]: > 60% | Activity [7]: Active | Activity [8]: Non-Toxic | Activity [9]: Dose-Dependent Effect | Activity [10]: Dose-Dependent Effect | Activity [11]: 23.42% | Activity [12]: Non-Toxic | Activity [13]: Dose-Dependent Effect | inhibition [14]: Active | Activity [15]: Active | Activity [16]: Active | inhibition [17]: Active | Vd [18]: 3.22 L/kg | Activity [19]: 61.71% | inhibition [20]: Active | Activity [21]: Active | inhibition [22]: > 60% | inhibition [23]: Dose-Dependent Effect | Activity [24]: Active | Activity [25]: 4.39% | Activity [26]: Active | inhibition [27]: Active | IC50 [28]: 9 µM | MRT inf [29]: 1.87 h | Cmax [30]: 12.2 ng/mL
